# Reference: patent publication US6958142B2, “Nasal spray formulation and method” (Balance Pharmaceuticals, Inc., priority 2002, dated 2005)
# “And” between values parts separate entries of the source, which are not always exact repeats. Identical values can stand only once. Like-named read-outs stand apart in the source and are kept apart here.
# What was measured:
# [1] = tested on: premenopausal women with uterine leiomyomata; assay: Example 3: uterine size (uterine volume from ultrasound); format: in vivo, human
# Experimental: (§2) The compound was administered using a commercially available nasal sprayer that delivered a 50 μL spray volume. The daily dose was administered by application of 50 μL to each nostril once per day, for a total daily volume of 100 μL. During the 12 week treatment period the patients kept daily bleeding calendars and underwent clinical assessments at scheduled intervals.
# (§3) A 12 week study was performed to establish an effective dose of deslorelin for controlling heavy bleeding secondary to uterine leiomyomata. Forty-one premenopausal women completed the study and are identified as Subject Nos. 1 through 41. The women were divided into test groups for treatment with intranasal deslorelin as follows:
# (§4) For one complete menstrual cycle prior to treatment, each woman completed a daily bleeding calendar. Eligible subjects were then treated with deslorelin at the assigned dosage once per day by intranasal application. During the 12 weeks of daily intranasal administration, each woman kept a daily bleeding calendar, completed quality of life questionnaires, and underwent clinical assessment and laboratory testing.
# [2] = tested on: heavy bleeding secondary to uterine leiomyomata; assay: Example 3: bleeding score from daily bleeding calendars; format: in vivo, human
# Experimental: as §2, §3, §4
# [3] = tested on: premenopausal females with uterine fibroids; assay: Example 8: reduction of bleeding into the normal range; format: in vivo, human; details: deslorelin 1 mg/day intranasal
# Experimental: (§1) Premenopausal females (n=265) with uterine fibroids were recruited for participation in a 12 month double blind study. The women were randomly assigned to treatment in one of the following five study arms: Deslorelin at a daily dose of 1 mg was administered intranasally using a conventional metered spray delivery device. The intranasal preparation was a 100 μL daily nasal spray containing 1.0 mg deslorelin. […] Women with uterine fibroids often experience very heavy bleeding (menorrhagia) and uterine enlargement leading to pelvic pain and pressure symptoms. Clinical benefit was assessed by measuring changes in bleeding score (percent of subjects with reduction of bleeding into the normal range) and uterine volume. Shown in Table 9A are the percent of subjects responding (reduction of bleeding into the normal range) after 3 and 6 months of treatment.
# [4] = tested on: premenopausal females with uterine fibroids; assay: Example 8: change in uterine volume; format: in vivo, human; details: 6 Months of treatment compared to baseline
# Experimental: as §1
# [5] = tested on: bone mineral density of the lumbar spine; details: in vivo
# Text: Bone mineral density (BMD) of the lumbar spine was obtained by dual-energy X-ray absorptiometry (DEXA) prior to and after six months of drug treatment.
# [6] = tested on: ovarian estrogen and progesterone production; assay: Example 3: serum hormone levels
# Experimental: In a first study, deslorelin was administered alone to determine an appropriate dose for treatment of an exemplary benign gynecological disorder, uterine leiomyomata (fibroids). More specifically, the dose appropriate to control the heavy bleeding secondary to uterine leiomyomata was determined. […] The compound was administered using a commercially available nasal sprayer that delivered a 50 μL spray volume. The daily dose was administered by application of 50 μL to each nostril once per day, for a total daily volume of 100 μL. During the 12 week treatment period the patients kept daily bleeding calendars and underwent clinical assessments at scheduled intervals. Clinical assessments included grading of nasal irritation (Table 5A), determination of uterine size (Table 5B), and serum hormone levels (Table 5C).
# Eligible subjects were then treated with deslorelin at the assigned dosage once per day by intranasal application. During the 12 weeks of daily intranasal administration, each woman kept a daily bleeding calendar, completed quality of life questionnaires, and underwent clinical assessment and laboratory testing. […] Clinical assessments included grading of nasal irritation (Table 5A), determination of uterine size (Table 5B), and serum hormone levels (Table 5C).
# physchem = details: aqueous with cosolvent or surfactant or cyclodextrin, thermodynamic from solid
# [7] = Serum testosterone average concentration over 24 hours after intranasal testosterone
# Experimental: In another study, five women were treated with intranasal testosterone.
# [8] = at 25° C.; cited from earlier work
# [9] = Deslorelin 0.5 mg/day, Baseline
# [10] = Deslorelin 0.5 mg/day, End of Week 4
# [11] = Deslorelin 0.5 mg/day, End of Week 8
# [12] = Deslorelin 0.5 mg/day, End of Week 12
# [13] = Deslorelin 1 mg/day, End of Week 4
# [14] = Deslorelin 1 mg/day, End of Week 8
# [15] = Deslorelin 1 mg/day, End of Week 12
# [16] = Deslorelin 2 mg/day, End of Week 4
# [17] = Deslorelin 2 mg/day, End of Week 8
# [18] = Deslorelin 2 mg/day, End of Week 12
smiles,measurement,setting,value
"CCNC(=O)[C@@H]1CCCN1C(=O)[C@H](CCCN=C(N)N)NC(=O)[C@H](CC(C)C)NC(=O)[C@@H](Cc1c[nH]c2ccccc12)NC(=O)[C@H](Cc1ccc(O)cc1)NC(=O)[C@H](CO)NC(=O)[C@H](Cc1c[nH]c2ccccc12)NC(=O)[C@H](Cc1cnc[nH]1)NC(=O)[C@@H]1CCC(=O)N1 [Deslorelin, (pyro)Pro-His-Trp-Ser-Tyr-DTrp-Leu-Arg-Pro-ethylamide]",uterine volume calculated from ultrasound determined dimensions (in words),"[1]; 0.5, 1.0, 2.0 mg/day, 12 weeks",reduction in uterine volume
same,Uterine Size Mean Difference (end of week 12 minus baseline uterine volume),[1]; Deslorelin 0.5 mg/day intranasal,−109.6 cm^3
same,Uterine Size Mean Difference (end of week 12 minus baseline uterine volume),[1]; Deslorelin 1 mg/day intranasal,−63.6 cm^3
same,Uterine Size Mean Difference (end of week 12 minus baseline uterine volume),[1]; Deslorelin 2 mg/day intranasal,−246.5 cm^3
same,Bleeding Score,"[2]; Deslorelin 0.5 mg/day, Baseline Score, 0 no bleeding, 5 normal flow, 10 or greater menorrhagia",10.9
same,Bleeding Score,"[2]; Deslorelin 0.5 mg/day, Weeks 1-4",6.6
same,Bleeding Score,"[2]; Deslorelin 0.5 mg/day, Weeks 5-8",3.5
same,Bleeding Score,"[2]; Deslorelin 0.5 mg/day, Weeks 9-12",2.6
same,Bleeding Score,"[2]; Deslorelin 1 mg/day, Baseline Score",10.8
same,Bleeding Score,"[2]; Deslorelin 1 mg/day, Weeks 1-4",7.8
same,Bleeding Score,"[2]; Deslorelin 1 mg/day, Weeks 5-8",0.4
same,Bleeding Score,"[2]; Deslorelin 1 mg/day, Weeks 9-12",1.7
same,Bleeding Score,"[2]; Deslorelin 2 mg/day, Baseline Score",14.1
same,Bleeding Score,"[2]; Deslorelin 2 mg/day, Weeks 1-4",6.6
same,Bleeding Score,"[2]; Deslorelin 2 mg/day, Weeks 5-8",1.2
same,Bleeding Score,"[2]; Deslorelin 2 mg/day, Weeks 9-12",0.6
same,effectiveness (in words),"[2]; all tested doses (0.5, 1.0, 2.0 mg/day)","partially or completely effective with reduction of bleeding, associated pain, and uterine size"
same,bleeding score (in words),[2]; end of the 12 week study,marked improvement in their bleeding score
same,% with reduction of bleeding into the normal range,[3]; 3 Months,69%
same,% with reduction of bleeding into the normal range,[3]; 6 Months,92%
same,Proportion of Initial Volume (uterine volume),[4],0.675
same,Mean Ratio (BMD6 mo/BMDbaseline),[5],0.971
same,Hormone Levels: Estradiol,[6]; [9],173 pg/mL
same,Hormone Levels: Progesterone,[6]; [9],641 ng/dL
same,Hormone Levels: Testosterone,[6]; [9],24 ng/dL
same,Hormone Levels: Estradiol,[6]; [10],47 pg/mL
same,Hormone Levels: Progesterone,[6]; [10],40 ng/dL
same,Hormone Levels: Testosterone,[6]; [10],19 ng/dL
same,Hormone Levels: Estradiol,[6]; [11],79 pg/mL
same,Hormone Levels: Progesterone,[6]; [11],30 ng/dL
same,Hormone Levels: Testosterone,[6]; [11],22 ng/dL
same,Hormone Levels: Estradiol,[6]; [12],66 pg/mL
same,Hormone Levels: Progesterone,[6]; [12],37 ng/dL
same,Hormone Levels: Testosterone,[6]; [12],23 ng/dL
same,Hormone Levels: Estradiol,"[6]; Deslorelin 1 mg/day, Baseline",123 pg/mL
same,Hormone Levels: Progesterone,"[6]; Deslorelin 1 mg/day, Baseline",480 ng/dL
same,Hormone Levels: Testosterone,"[6]; Deslorelin 1 mg/day, Baseline",26 ng/dL
same,Hormone Levels: Estradiol,[6]; [13],51 pg/mL
same,Hormone Levels: Progesterone,[6]; [13],12 ng/dL
same,Hormone Levels: Testosterone,[6]; [13],22 ng/dL
same,Hormone Levels: Estradiol,[6]; [14],95 pg/mL
same,Hormone Levels: Progesterone,[6]; [14],25 ng/dL
same,Hormone Levels: Testosterone,[6]; [14],20 ng/dL
same,Hormone Levels: Estradiol,[6]; [15],30 pg/mL
same,Hormone Levels: Progesterone,[6]; [15],10 ng/dL
same,Hormone Levels: Testosterone,[6]; [15],16 ng/dL
same,Hormone Levels: Estradiol,"[6]; Deslorelin 2 mg/day, Baseline",184 pg/mL
same,Hormone Levels: Progesterone,"[6]; Deslorelin 2 mg/day, Baseline",337 ng/dL
same,Hormone Levels: Testosterone,"[6]; Deslorelin 2 mg/day, Baseline",34 ng/dL
same,Hormone Levels: Estradiol,[6]; [16],14 pg/mL
same,Hormone Levels: Progesterone,[6]; [16],12 ng/dL
same,Hormone Levels: Testosterone,[6]; [16],16 ng/dL
same,Hormone Levels: Estradiol,[6]; [17],31 pg/mL
same,Hormone Levels: Progesterone,[6]; [17],14 ng/dL
same,Hormone Levels: Testosterone,[6]; [17],20 ng/dL
same,Hormone Levels: Estradiol,[6]; [18],30 pg/mL
same,Hormone Levels: Progesterone,[6]; [18],13 ng/dL
same,Hormone Levels: Testosterone,[6]; [18],20 ng/dL
"C[C@]12CC[C@H]3[C@@H](CCC4=CC(=O)CC[C@@]43C)[C@@H]1CC[C@@H]2O [Testosterone, testosterone]",Molar Ratio steroid/HPβCD,"both steroids together, HPβCD 10 mg/mL",0.31
same,Molar Ratio steroid/HPβCD,"both steroids together, HPβCD 40 mg/mL",0.34
same,Molar Ratio steroid/HPβCD,"both steroids together, HPβCD 70 mg/mL",0.35
same,Molar Ratio steroid/HPβCD,"both steroids together, HPβCD 100 mg/mL",0.34
same,Molar Ratio steroid/HPβCD,"both steroids together, HPβCD 130 mg/mL",0.39
same,Molar Ratio steroid/HPβCD,"both steroids together, HPβCD 160 mg/mL",0.40
same,Molar Ratio steroid/HPβCD,"both steroids together, HPβCD 190 mg/mL",0.40
same,Molar Ratio steroid/HPβCD,"both steroids together, HPβCD 250 mg/mL",0.38
same,Molar Ratio steroid/HPβCD,"steroid alone, HPβCD 10 mg/mL",0.39
same,Molar Ratio steroid/HPβCD,"steroid alone, HPβCD 40 mg/mL",0.30
same,Molar Ratio steroid/HPβCD,"steroid alone, HPβCD 70 mg/mL",0.38
same,Molar Ratio steroid/HPβCD,"steroid alone, HPβCD 100 mg/mL",0.33
same,Molar Ratio steroid/HPβCD,"steroid alone, HPβCD 130 mg/mL",0.43
same,Molar Ratio steroid/HPβCD,"steroid alone, HPβCD 160 mg/mL",0.41
same,Molar Ratio steroid/HPβCD,"steroid alone, HPβCD 190 mg/mL",0.42
same,Molar Ratio steroid/HPβCD,"steroid alone, HPβCD 220 mg/mL",0.40
same,Molar Ratio steroid/HPβCD,"steroid alone, HPβCD 250 mg/mL",0.41
same,solubility,"physchem; Estradiol and Testosterone solubility, both steroids together in aqueous HPβCD 10 mg/mL",0.658 mg/mL
same,solubility,"physchem; Estradiol and Testosterone solubility, both steroids together in aqueous HPβCD 40 mg/mL",2.82 mg/mL
same,solubility,"physchem; Estradiol and Testosterone solubility, both steroids together in aqueous HPβCD 70 mg/mL",5.07 mg/mL
same,solubility,"physchem; Estradiol and Testosterone solubility, both steroids together in aqueous HPβCD 100 mg/mL",7.11 mg/mL
same,solubility,"physchem; Estradiol and Testosterone solubility, both steroids together in aqueous HPβCD 130 mg/mL",10.6 mg/mL
same,solubility,"physchem; Estradiol and Testosterone solubility, both steroids together in aqueous HPβCD 160 mg/mL",13.4 mg/mL
same,solubility,"physchem; Estradiol and Testosterone solubility, both steroids together in aqueous HPβCD 190 mg/mL",15.7 mg/mL
same,solubility,"physchem; Estradiol and Testosterone solubility, both steroids together in aqueous HPβCD 250 mg/mL",20 mg/mL
same,solubility,"physchem; solubility, steroid alone in aqueous HPβCD 10 mg/mL",0.81 mg/mL
same,solubility,"physchem; solubility, steroid alone in aqueous HPβCD 40 mg/mL",2.54 mg/mL
same,solubility,"physchem; solubility, steroid alone in aqueous HPβCD 70 mg/mL",5.63 mg/mL
same,solubility,"physchem; solubility, steroid alone in aqueous HPβCD 100 mg/mL",6.82 mg/mL
same,solubility,"physchem; solubility, steroid alone in aqueous HPβCD 130 mg/mL",11.6 mg/mL
same,solubility,"physchem; solubility, steroid alone in aqueous HPβCD 160 mg/mL",13.9 mg/mL
same,solubility,"physchem; solubility, steroid alone in aqueous HPβCD 190 mg/mL",16.5 mg/mL
same,solubility,"physchem; solubility, steroid alone in aqueous HPβCD 220 mg/mL",18.6 mg/mL
same,solubility,"physchem; solubility, steroid alone in aqueous HPβCD 250 mg/mL",21.7 mg/mL
same,Testosterone average concentration over 24 hours,"[7]; intranasal 250 μg testosterone in preparation with deslorelin and estradiol, Day 1, individual subjects",26.7 ng/dL (2×) and 19.0 ng/dL and 18.8 ng/dL and 19.1 ng/dL
same,Testosterone average concentration over 24 hours,"[7]; intranasal 250 μg testosterone in preparation with deslorelin and estradiol, Day 8, individual subjects",29.9 ng/dL and 17.1 ng/dL and 16.5 ng/dL and 16.2 ng/dL and 24.1 ng/dL
same,Testosterone average concentration over 24 hours,"[7]; intranasal 250 μg testosterone, average of both observations (Day 1, Day 8) in each of the 5 subjects",21.4 ng/dL
OC[C@H]1O[C@@H]2O[C@H]3[C@H](O)[C@@H](O)[C@@H](O[C@H]4[C@H](O)[C@@H](O)[C@@H](O[C@H]5[C@H](O)[C@@H](O)[C@@H](O[C@H]6[C@H](O)[C@@H](O)[C@@H](O[C@H]7[C@H](O)[C@@H](O)[C@@H](O[C@H]8[C@H](O)[C@@H](O)[C@@H](O[C@H]9[C@H](O)[C@@H](O)[C@@H](O[C@H]%10[C@H](O)[C@@H](O)[C@@H](O[C@H]1[C@H](O)[C@H]2O)O[C@@H]%10CO)O[C@@H]9CO)O[C@@H]8CO)O[C@@H]7CO)O[C@@H]6CO)O[C@@H]5CO)O[C@@H]4CO)O[C@@H]3CO [δ-cyclodextrin],water solubility,[8],8.19 g/100 mL
